According to ChEMBL document CHEMBL1250454, “Oral oxytocin antagonists” (J Med Chem, 2010):
Converted amounts (≈) assume the structure as drawn.

Assays:
Vasopressin V1b receptor [1] = target: T1, Vasopressin V1b receptor (Homo sapiens, UniProt P47901); test: Displacement of [3H]vasopressin from human vasopressin V1b receptor
T1 sequence (P47901 whole entry): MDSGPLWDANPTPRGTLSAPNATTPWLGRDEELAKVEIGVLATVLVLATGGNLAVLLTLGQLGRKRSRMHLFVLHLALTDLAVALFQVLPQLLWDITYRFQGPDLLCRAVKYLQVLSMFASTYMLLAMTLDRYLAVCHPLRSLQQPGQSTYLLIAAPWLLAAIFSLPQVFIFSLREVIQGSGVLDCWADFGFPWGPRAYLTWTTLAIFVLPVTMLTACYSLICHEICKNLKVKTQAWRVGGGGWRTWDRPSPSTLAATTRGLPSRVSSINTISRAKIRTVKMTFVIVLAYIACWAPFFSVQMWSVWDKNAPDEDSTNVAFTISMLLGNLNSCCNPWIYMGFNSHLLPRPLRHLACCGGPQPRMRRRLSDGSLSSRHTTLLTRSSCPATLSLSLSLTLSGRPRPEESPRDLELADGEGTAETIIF

Vasopressin V1a receptor [2] = target: T2, Vasopressin V1a receptor (Homo sapiens, UniProt P37288); test: Displacement of [3H]vasopressin from human vasopressin V1a receptor
T2 sequence (P37288 whole entry): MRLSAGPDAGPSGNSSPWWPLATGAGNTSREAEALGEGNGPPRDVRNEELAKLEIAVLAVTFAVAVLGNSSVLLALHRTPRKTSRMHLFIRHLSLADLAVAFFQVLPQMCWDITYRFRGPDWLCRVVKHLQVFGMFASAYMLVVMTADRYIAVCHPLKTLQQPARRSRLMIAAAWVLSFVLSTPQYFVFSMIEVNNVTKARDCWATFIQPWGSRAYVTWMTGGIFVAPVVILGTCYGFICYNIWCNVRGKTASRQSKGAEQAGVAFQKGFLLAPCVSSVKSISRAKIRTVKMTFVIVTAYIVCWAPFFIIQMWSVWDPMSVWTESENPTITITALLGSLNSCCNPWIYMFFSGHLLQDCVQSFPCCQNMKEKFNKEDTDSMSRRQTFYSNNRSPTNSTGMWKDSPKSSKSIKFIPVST

Vasopressin V1b receptor [3] = target: T1, Vasopressin V1b receptor; test: Displacement of [3H]vasopressin from human vasopressin V1b receptor expressed in CHO cells; format: cell-based
Oxytocin receptor [4] = target: T3, Oxytocin receptor (Rattus norvegicus, UniProt P70536); test: Displacement of [3H]-oxytocin from rat oxytocin receptor expressed in HEK293-EBNA cells; format: cell-based
T3 sequence (P70536 whole entry): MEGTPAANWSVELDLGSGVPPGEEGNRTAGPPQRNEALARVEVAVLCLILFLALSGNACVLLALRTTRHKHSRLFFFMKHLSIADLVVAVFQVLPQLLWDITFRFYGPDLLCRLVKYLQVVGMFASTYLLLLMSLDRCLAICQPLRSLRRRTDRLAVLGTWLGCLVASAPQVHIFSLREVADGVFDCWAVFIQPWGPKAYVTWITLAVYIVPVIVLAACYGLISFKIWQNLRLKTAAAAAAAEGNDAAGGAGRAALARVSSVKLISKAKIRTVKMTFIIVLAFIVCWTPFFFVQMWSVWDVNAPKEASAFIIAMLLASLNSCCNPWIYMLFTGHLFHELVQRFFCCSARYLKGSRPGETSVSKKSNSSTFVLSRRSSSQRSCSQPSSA

[5] = Aqueous solubility of the compound at pH 5; format: physicochemical
Homo sapiens [6] = organism: Homo sapiens; test: Selectivity ratio of Ki for human oxytocin receptor Ki for human vasopressin V1a receptor
[7] = Oral bioavailability in pregnant rat; format: ADME, organism-based; conditions: female, in vivo
[8] = Half life in pregnant rat; format: ADME, organism-based; conditions: female, in vivo
Vasopressin V2 receptor [9] = target: T4, Vasopressin V2 receptor (Homo sapiens, UniProt P30518); test: Displacement of [3H]vasopressin from human vasopressin V2 receptor expressed in CHO cells; format: cell-based
T4 sequence (P30518 whole entry): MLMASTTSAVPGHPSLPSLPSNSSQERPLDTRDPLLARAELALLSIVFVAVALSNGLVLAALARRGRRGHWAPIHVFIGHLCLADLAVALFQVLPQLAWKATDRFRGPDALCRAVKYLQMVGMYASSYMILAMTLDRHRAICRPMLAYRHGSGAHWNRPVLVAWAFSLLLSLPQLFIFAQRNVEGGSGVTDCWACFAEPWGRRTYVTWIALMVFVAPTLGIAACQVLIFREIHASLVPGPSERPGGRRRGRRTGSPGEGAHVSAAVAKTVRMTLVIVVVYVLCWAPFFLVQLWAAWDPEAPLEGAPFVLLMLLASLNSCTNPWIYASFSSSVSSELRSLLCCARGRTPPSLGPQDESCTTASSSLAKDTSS

Oxytocin receptor [10] = target: T5, Oxytocin receptor (Homo sapiens, UniProt P30559); test: Displacement of [3H]-oxytocin from oxytocin receptor in human uterus tissue; format: tissue-based
T5 sequence (P30559 whole entry): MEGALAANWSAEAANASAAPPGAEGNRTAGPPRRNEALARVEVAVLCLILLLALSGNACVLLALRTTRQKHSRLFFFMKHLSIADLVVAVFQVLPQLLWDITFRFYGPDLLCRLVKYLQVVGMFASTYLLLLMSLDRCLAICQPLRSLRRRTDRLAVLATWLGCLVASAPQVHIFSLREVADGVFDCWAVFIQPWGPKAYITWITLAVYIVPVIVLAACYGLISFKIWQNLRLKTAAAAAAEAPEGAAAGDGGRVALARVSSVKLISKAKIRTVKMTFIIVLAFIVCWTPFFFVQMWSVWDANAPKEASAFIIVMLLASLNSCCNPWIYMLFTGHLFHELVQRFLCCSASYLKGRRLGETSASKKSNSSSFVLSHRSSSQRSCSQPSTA

Homo sapiens [11] = organism: Homo sapiens; test: Selectivity ratio of Ki for human oxytocin receptor Ki for human vasopressin V2 receptor
Oxytocin receptor [12] = target: T3, Oxytocin receptor; test: Antagonist activity at oxytocin receptor in rat uterine strips assessed as inhibition of oxytocin-induced contraction; format: functional; conditions: read-out: pA2 (converted)
Oxytocin receptor [13] = target: T5, Oxytocin receptor; test: Displacement of [3H]-oxytocin from human oxytocin receptor expressed in CHO cells; format: cell-based
Rattus norvegicus [14] = test: Inhibition of oxytocin-induced uterine contraction in iv dosed rat; format: functional
[15] = Oral bioavailability in rat; format: ADME, organism-based; conditions: in vivo
Rattus norvegicus [16] = test: Inhibition of oxytocin-induced uterine contraction in po dosed rat; format: functional
[17] = Oral bioavailability in rhesus monkey; format: ADME, organism-based, Macaca mulatta; conditions: in vivo
Rattus norvegicus [18] = test: Inhibition of oxytocin-induced uterine contraction in intraduodenally dosed rat; format: functional
Vasopressin V2 receptor [19] = target: T4, Vasopressin V2 receptor; test: Displacement of [3H]vasopressin from vasopressin V2 receptor in human kidney tissue
[20] = Oral bioavailability in chimpanzee; format: ADME, organism-based, Pan troglodytes; conditions: in vivo
Oxytocin receptor [21] = target: T3, Oxytocin receptor; test: Displacement of [3H]-oxytocin from oxytocin receptor in rat uterus tissue; format: tissue-based
[22] = Half life in rhesus monkey; format: ADME, organism-based, Macaca mulatta; conditions: in vivo
Vasopressin V2 receptor [23] = target: T6, Vasopressin V2 receptor (Rattus norvegicus, UniProt Q00788); test: Displacement of [3H]vasopressin from vasopressin V2 receptor in rat kidney tissue
T6 sequence (Q00788 whole entry): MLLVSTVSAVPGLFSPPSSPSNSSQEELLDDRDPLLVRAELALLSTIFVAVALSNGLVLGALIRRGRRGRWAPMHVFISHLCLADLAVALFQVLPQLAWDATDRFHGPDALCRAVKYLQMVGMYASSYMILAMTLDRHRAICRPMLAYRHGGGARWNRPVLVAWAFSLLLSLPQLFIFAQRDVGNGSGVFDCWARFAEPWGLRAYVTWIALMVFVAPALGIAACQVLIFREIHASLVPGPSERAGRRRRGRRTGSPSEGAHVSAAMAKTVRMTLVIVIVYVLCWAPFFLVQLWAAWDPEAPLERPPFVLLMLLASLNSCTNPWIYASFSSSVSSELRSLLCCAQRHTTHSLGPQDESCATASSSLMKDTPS

Vasopressin V1a receptor [24] = target: T2, Vasopressin V1a receptor; test: Displacement of [3H]vasopressin from vasopressin V1a receptor in human liver tissue
Vasopressin V1a receptor [25] = target: T7, Vasopressin V1a receptor (Rattus norvegicus, UniProt P30560); test: Displacement of [3H]vasopressin from vasopressin V1a receptor in rat liver tissue
T7 sequence (P30560 whole entry): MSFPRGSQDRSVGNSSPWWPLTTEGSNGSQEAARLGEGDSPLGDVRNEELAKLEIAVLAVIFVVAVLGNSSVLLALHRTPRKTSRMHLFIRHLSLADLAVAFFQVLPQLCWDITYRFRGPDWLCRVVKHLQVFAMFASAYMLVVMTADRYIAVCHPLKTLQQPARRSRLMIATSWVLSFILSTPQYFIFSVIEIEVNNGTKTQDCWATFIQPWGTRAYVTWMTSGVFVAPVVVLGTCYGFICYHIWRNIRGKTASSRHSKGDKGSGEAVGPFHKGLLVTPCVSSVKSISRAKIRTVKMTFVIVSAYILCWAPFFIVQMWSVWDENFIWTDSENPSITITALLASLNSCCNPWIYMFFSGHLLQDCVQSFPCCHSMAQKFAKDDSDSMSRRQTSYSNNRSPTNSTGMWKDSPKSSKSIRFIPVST

Homo sapiens [26] = organism: Homo sapiens; test: Selectivity ratio of Ki for human oxytocin receptor Ki for human vasopressin V1b receptor
Vasopressin V2 receptor [27] = target: T4, Vasopressin V2 receptor; test: Displacement of [3H]vasopressin from human vasopressin V2 receptor
Rattus norvegicus [28] = test: Inhibition of oxytocin-induced uterine contraction in long-term pregnant anaesthetized rat at 30 mg/kg, po; format: functional; conditions: read-out: INH
Rattus norvegicus [29] = test: Inhibition of oxytocin-induced uterine contraction in non-pregnant anaesthetized rat at 30 mg/kg, po; format: functional
Rattus norvegicus [30] = test: Inhibition of oxytocin-induced uterine contraction in iv dosed non-pregnant anaesthetized rat; format: functional
Vasopressin V1a receptor [31] = target: T7, Vasopressin V1a receptor; test: Displacement of [3H]vasopressin from rat vasopressin V1a receptor in liver tissue
Vasopressin V1a receptor [32] = target: T2, Vasopressin V1a receptor; test: Displacement of [3H]vasopressin from human vasopressin V1a receptor expressed in CHO cells; format: cell-based
Vasopressin V2 receptor [33] = target: T6, Vasopressin V2 receptor; test: Displacement of [3H]vasopressin from rat vasopressin V2 receptor in kidney tissue
Oxytocin receptor [34] = target: T3, Oxytocin receptor; test: Displacement of [3H]-oxytocin from rat oxytocin receptor expressed in CHO cells; format: cell-based
Vasopressin V1a receptor [35] = target: T2, Vasopressin V1a receptor; test: Displacement of [3H]vasopressin from human vasopressin V1a receptor expressed in CHO cells at 10 uM; format: cell-based

SMILES: CC(C)C[C@@H]1C(=O)N[C@H](C2Cc3ccccc3C2)C(=O)N1[C@@H](C(=O)NC(C)C)c1ccc(F)cc1F
- Ki (Vasopressin V1b receptor [1]): > 6310 nM
- Ki (Vasopressin V1a receptor [2]): 6310 nM

SMILES: CCOc1ccc(S(=O)(=O)N(CC(=O)NN=C2C(=O)Nc3ccccc32)c2ccc(C)cc2)cc1
- Ki (Vasopressin V1b receptor [3]): 2500 nM
- Ki (Oxytocin receptor [4]): 25 nM
- solubility [5]: < 1 µg/mL

SMILES: CO/N=C1/C[C@@H](C(=O)NC[C@@H](O)c2ccccc2)N(C(=O)c2ccc(-c3ccccc3C)cc2)C1
- Ratio Ki (Homo sapiens [6]): 6
- bioavailability [7]: 49%
- half-life [8]: 2.8 h
- Ki (Vasopressin V2 receptor [9]): > 10000 nM
- Ki (Oxytocin receptor [10]): 28 nM
- Ratio Ki (Homo sapiens [11]): 350
- Kb (Oxytocin receptor [12]): 15.8 nM
- IC50 (Oxytocin receptor [13]): 28 nM
- ED50 (Rattus norvegicus [14]; Rattus norvegicus, iv): 3.5 mg/kg
- bioavailability [15]: 49%
- ED50 (Rattus norvegicus [16]): 89 mg/kg

SMILES: COc1cc(OC2CCN(C(C)=O)CC2)ccc1C(=O)N1CCC(N2C(=O)OCc3ccccc32)CC1
- bioavailability [17]: 13%
- AD50 (Rattus norvegicus [14]): 0.55 mg/kg
- AD50 (Rattus norvegicus [18]): 2.5 mg/kg

SMILES: O=C(Cn1cc(C(F)(F)F)ccc1=O)NCc1cc2cc(C(=O)N3CCC(N4C(=O)OCc5ccccc54)CC3)ccc2o1
- Ratio Ki (Homo sapiens [6]): 630
- Ki (Vasopressin V2 receptor [19]): > 3000 nM
- Ratio Ki (Homo sapiens [11]): > 1500
- bioavailability [20]: 51%

SMILES: COc1cc(OC2CCN(Cc3ccc[n+]([O-])c3C)CC2)ccc1C(=O)N1CCC(N2C(=O)OCc3ccccc32)CC1
- Ratio Ki (Homo sapiens [6]): 650
- Ki (Vasopressin V2 receptor [19]): 28000 nM
- Ki (Oxytocin receptor [10]): 4.9 nM
- bioavailability [17]: 36%
- Ratio Ki (Homo sapiens [11]): > 5700
- Ki (Oxytocin receptor [21]): 14 nM
- half-life [22]: 2 h
- Ki (Vasopressin V2 receptor [23]): 9700 nM
- AD50 (Rattus norvegicus [14]): 0.78 mg/kg
- solubility [5]: 10000 µg/mL (≈ 17 mM)
- bioavailability [15]: 80%
- bioavailability [20]: 90%
- Ki (Vasopressin V1a receptor [24]): 3200 nM
- AD50 (Rattus norvegicus [18]): 2.5 mg/kg
- Ki (Vasopressin V1a receptor [25]): 0.76 nM

SMILES: CC(C)C[C@@H]1C(=O)N[C@H](C2Cc3ccccc3C2)C(=O)N1[C@@H](C(=O)NC(C)C)c1ccc(F)cc1
- Ratio Ki (Homo sapiens [6]): > 1500
- Ratio Ki (Homo sapiens [26]): > 1500
- Ki (Vasopressin V2 receptor [27]): 1260 nM
- Ki (Vasopressin V1b receptor [1]): > 6310 nM
- Ki (Vasopressin V1a receptor [2]): > 6310 nM
- Ratio Ki (Homo sapiens [11]): > 300

SMILES: CN(C)CCCNC(=O)CCc1ccc(S(=O)(=O)N(CC(=O)N/N=C2\C(=O)Nc3ccccc32)c2ccc(Cl)cc2)cc1
- inhibition in vivo at 30 mg/kg (Rattus norvegicus [28]): 35%
- Ratio Ki (Homo sapiens [6]): 60
- Ratio Ki (Homo sapiens [26]): 23000
- inhibition in vivo at 30 mg/kg (Rattus norvegicus [29]): 35%
- Ratio Ki (Homo sapiens [11]): 580
- Ki (Vasopressin V1b receptor [3]): 377 nM
- ED50 (Rattus norvegicus [30]): 1.4 mg/kg

SMILES: Cc1ccc(S(=O)(=O)N2CCC3(C=Cc4ccccc43)CC2)cc1
- Ki (Oxytocin receptor [10]): 1000 nM
- Ki (Vasopressin V2 receptor [23]): > 40000 nM
- Ki (Vasopressin V1a receptor [25]): 9800 nM

SMILES: CCN(Cc1cccnc1)C(=O)c1ccc(Cl)c([C@]2(C)C(=O)N(Cc3ccc(OC)cc3OC)c3ccc(Cl)cc32)c1
- Ki (Vasopressin V1a receptor [31]): 99 nM
- Ki (Vasopressin V2 receptor [9]): > 1000 nM
- Kb (Oxytocin receptor [12]): 3.39 nM
- IC50 (Oxytocin receptor [13]): 0.5 nM
- Ki (Vasopressin V1a receptor [32]): 143 nM
- Ki (Vasopressin V2 receptor [33]): > 1000 nM
- Ki (Oxytocin receptor [34]): 1.6 nM

SMILES: CCOCc1nnc(-c2ccc(OCC)c(C)c2)n1-c1ccc(OC)nc1
- Ki (Vasopressin V2 receptor [9]): > 10000 nM
- Ki (Vasopressin V1a receptor [35]): 549 nM
- Ki (Vasopressin V1b receptor [3]): > 10000 nM

SMILES: COc1ccc(N(Cc2ccc(-c3ccccc3C)cn2)S(=O)(=O)c2cn(C)c(C)n2)cn1
- Ratio Ki (Homo sapiens [6]): 80
- Ki (Oxytocin receptor [10]): 9.1 nM
- Ratio Ki (Homo sapiens [11]): 15700
